Results published in paper PMC10786919, “Design-rules for stapled peptides with in vivo activity and their application to Mdm2/X antagonists” (Nature Communications, 2024).
Converted amounts (≈) assume the structure as drawn. Where two headings read alike, the source gives them in different places. Positions of bridges follow the written chain, without caps; N, C: chain ends. Non-standard residues stand in square brackets, D forms with d. Residues, ends and D or L forms follow the SMILES beside them. R8 = C=CCCCCCC[C@@](C)(N)C(=O)O; S5 = C=CCCC[C@](C)(N)C(=O)O; Aib = CC(C)(N)C(=O)O

Assays:
[1] = physchem
[2] = Solubility assay (kinetic solubility, PBS pH 7); assay type: physicochemical; conditions: for solubility kinetic: pH 7, aqueous buffer, kinetic from dmso stock, read-out: Solubility
Outline: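 Next, measure peak areas of sample and standard. Finally, multiply their ratio by the standard concentration to obtain solubility (µM).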

[3] = Experimental LogD (partition coefficient); conditions: for logD: not stated, Partition Coeff LogD
[4] = Lactate dehydrogenase (LDH) release assay; assay type: cell-based
Outline: (§1)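 Membrane damage measured as lactate dehydrogenase release (CytoTox-ONE kit) from p53-responsive β-lactamase reporter HCT116 cells plated at 8000 per well. Final DMSO 0.5%; geometric mean reported from a minimum of three biological replicates.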

[5] = Circular dichroism (CD) helicity; assay type: physicochemical
Description: A total of 5 µL of the 10 mM stock peptide was mixed with 45 µL of 100% methanol, and dried for 2 h in the SpeedVac concentrator (Thermo Scientific). The dried peptide was reconstituted in a buffer (1 mM Hepes pH 7.4 and 5% methanol) to a concentration of 1 mM. The peptide sample was placed in a quartz cuvette with a path length of 0.2 cm. The peptide concentration was determined by the absorbance of the peptide at […]. The CD spectrum was recorded from 300 to 190 nm using the Chirascan-plus qCD machine (Applied Photophysics, Surrey, UK), at 25 °C. All experiments were done in duplicates. The CD spectrum was converted to mean residue ellipticity before deconvolution and estimation of the secondary structure components of the peptide using the CDNN software (distributed by Applied Photophysics). Measurements were taken at least twice and were reported as arithmetic means.

[6] = test system: Jump-In T-REx CHO-K1 BLA cells; assay: cells; assay type: cell-based
[7] = physchem; remark: listed apart in the source
[8] = test system: p53 responsive β-lactamase reporter in HCT116 cells; assay: cells; assay type: cell-based
Outline: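 Read-out used the ToxBLAzer Dual Screen for β-lactamase driven by a stably integrated p53-responsive reporter. Assay: 8000 HCT116 cells per well at 0.5% final DMSO. Reported numbers are geometric means over a minimum of three biological replicates.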

[9] = test system: HCT116 cells; assay: Lactate dehydrogenase (LDH) release assay; assay type: cell-based
Outline: as §1

[10] = test system: CellSensor p53RE-bla HCT-116 Cell Line; conditions: read-out: Cell Proliferation assay EC50; p53 WT, HCT116
Outline: (§2)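 Compound dilution series (10 points, 3-fold, 10 mM top stock in DMSO) tested on overnight-plated Ca Ski cells in RPMI1640/10% FBS and on blasticidin-selected p53RE-bla HCT-116 cells in McCoy's 5A; read-out was CellTiter-Glo 2.0 luminescence after room-temperature equilibration.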

[11] = test system: Ca Ski cell line; conditions: read-out: Cell Proliferation assay EC50; p53 Mut, Ca-Ski
Outline: as §2

[12] = Nanoclick permeability assay
Outline: (§3)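 Azido-peptide permeability was read as loss of NanoBRET signal (donor 450 nm, acceptor 610 nm) after adding NanoBret618-azide at 10 μM final.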

[13] = test system: cells transiently transfected with the NanoLuc-HaloTag vector; assay: Nanoclick permeability assay; conditions: 4Hr
Outline: as §3

[14] = biological target: T1, human Mdm2 1–125 (Homo sapiens, UniProt Q00987); assay: Mdm2 binding by competitive fluorescence anisotropy assay (FP binding); conditions: read-out: FP binding assay KD
T1 construct: GST (N); His6 (internal); TEV cleavage site (ENLYFQG) (internal); made in house; host or cells: BL21 (DE3) Rosetta T1R Escherichia coli

[15] = 0% FBS 4Hr, read-out: TETCHO: Counterscreen EC50
[16] = 0% FBS 4Hr, read-out: p53 reporter assay: EC50
[17] = 0% FBS 4Hr, read-out: LDH: Cytotoxicity assay: EC50

T1 sequence (Q00987 with tags, fused parts or gaps): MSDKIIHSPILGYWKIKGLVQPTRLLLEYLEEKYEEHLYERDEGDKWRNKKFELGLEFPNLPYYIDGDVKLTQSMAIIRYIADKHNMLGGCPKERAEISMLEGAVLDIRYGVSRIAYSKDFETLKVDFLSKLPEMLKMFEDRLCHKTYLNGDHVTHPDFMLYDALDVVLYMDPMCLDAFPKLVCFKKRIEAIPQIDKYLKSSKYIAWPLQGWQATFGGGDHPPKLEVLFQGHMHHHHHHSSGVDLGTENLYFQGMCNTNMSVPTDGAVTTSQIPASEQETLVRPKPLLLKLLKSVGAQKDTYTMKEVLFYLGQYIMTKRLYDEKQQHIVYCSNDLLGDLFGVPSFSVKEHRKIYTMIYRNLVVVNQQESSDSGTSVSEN

| Structure (SMILES) | CD % Helicity [5] | TETCHO: Counterscreen % Effect ([6]; 0% FBS 4Hr) | EC50 [6, 15] | solubility kinetic ([2]; pH 7, PBS) | logD [3] | EPSA [7] | EC50 [8, 16] | Nanoclick permeability assay % Effect [13] | TETCHO: Counterscreen % Effect ([6]; 0% FBS 16Hr) | EC50 ([4]; LDH: Cytotoxicity assay: EC50) | LDH: Cytotoxicity assay: % Effect [9] | further results |
| --- | --- | --- | --- | --- | --- | --- | --- | --- | --- | --- | --- | --- |
| CC(=O)N[C@@H](CC(C)C)C(=O)N[C@H](C(=O)N[C@@H](Cc1ccccc1)C(=O)N[C@]1(C)CCCCCCC=CCCC[C@@](C)(C(=O)N[C@@H](CO)C(=O)N[C@@H](C)C(=O)N[C@@H](C)C(=O)NCCCCCC(N)=O)NC(=O)[C@H](CC2CCC2)NC(=O)[C@H](CCC(N)=O)NC(=O)[C@H](C)NC(=O)[C@H](Cc2c[nH]c3ccccc23)NC(=O)[C@H](Cc2ccc(O)cc2)NC(=O)[C@H](CCC(=O)O)NC1=O)[C@@H](C)O [MP-670] | – | – | – | – | – | – | – | – | – | – | – | EPSA [1]: 193 A^2; Solubility ([2]; pH 7, PBS): Poorly Behaved; Partition Coeff LogD [3]: Poorly Behaved; EC50 ([4]; LDH: Cytotoxicity assay EC50): > 50000 nM |
| CC(=O)N[C@@H](CCCCN=[N+]=[N-])C(=O)NCCC(=O)N[C@@H](CC(C)C)C(=O)N[C@H](C(=O)N[C@@H](Cc1ccccc1)C(=O)N[C@]1(C)CCCCCCC=CCCC[C@@](C)(C(=O)N[C@@H](CO)C(=O)N[C@@H](C)C(=O)N[C@@H](C)C(N)=O)NC(=O)[C@H](CC2CCC2)NC(=O)[C@H](CCC(N)=O)NC(=O)[C@H](Cc2c[nH]cn2)NC(=O)[C@H](Cc2c[nH]c3ccccc23)NC(=O)[C@H](Cc2ccc(O)cc2)NC(=O)[C@H](CCC(=O)O)NC1=O)[C@@H](C)O [MP-496, AZIDE-ATSP-7041 (A8H)] | 32.75% | 34.53% | 2830 nM | 20 µM (≈ 40.7 µg/mL) | 2.63 | 214 A^2 | 1610 nM | – | – | – | – | TETCHO Counterscreen % Effect ([6]; 4 hours, 0% serum, efficacy at 50 μM relative to tetracycline control): 34.53%; EC50 ([6]; 4 hours, 0% serum, read-out: TETCHO Counterscreen EC50): 2800 nM; off-target effects (LDH release and/or counterscreen activity) ([6]; Supplementary Table 1, 0% serum, 4 hours): none; EC50 ([8]; 0% FBS 16Hr, read-out: p53 reporter assay: EC50): 1670 nM; EC50 [4, 17]: > 50600 nM; LDH: Cytotoxicity assay: % Effect ([9]; 0% FBS 4Hr): 33.4%; EC50 [10]: 1540 nM; EC50 [11]: > 49800 nM |
| CC(=O)N[C@@H](CC(C)C)C(=O)N[C@H](C(=O)N[C@@H](Cc1ccccc1)C(=O)N[C@]1(C)CCCCCCC=CCCC[C@@](C)(C(=O)N[C@@H](C)C(=O)N[C@@H](C)C(=O)N[C@@H](C)C(=O)N[C@@H](C)C(=O)N[C@@H](C)C(=O)N[C@H](C)C(N)=O)NC(=O)[C@H](CC(C)C)NC(=O)[C@H](CCC(N)=O)NC(=O)[C@H](C)NC(=O)[C@H](Cc2c[nH]c3ccccc23)NC(=O)[C@H](Cc2ccc(O)cc2)NC(=O)[C@H](CCC(=O)O)NC1=O)[C@@H](C)O [ALRN-6924, Ac-LTF(R8)EYWAQL(S5)AAAAA(dA)-NH2, reference compound] (Ac-LTF[R8]EYWAQL[S5]AAAAA[dA]-NH2; staple 4-11) | 51.25% | 4.454% | > 50400 nM | – | – | – | – | 33.65% | – | – | – | Aqueous solution helicity ([5]; circular dichroism): 51.25%; TETCHO: Counterscreen % Effect ([6]; 10% FBS 16Hr): -11.62%; EC50 ([6]; 10% FBS 16Hr, read-out: TETCHO: Counterscreen EC50): > 50400 nM; Solubility [2]: P.B.; Solubility ([2]; pH 7, PBS): Poorly Behaved; Partition Coeff LogD [3]: Poorly Behaved; cell entry EC50 [12]: > 10000 nM; p53 reporter assay % Effect ([8]; 0% FBS 4Hr): 95.6%; EC50 ([8]; 0% FBS 4Hr, read-out: p53 reporter assay EC50): 141 nM; p53 reporter assay % Effect ([8]; 10% FBS 16Hr): 77.82%; EC50 ([8]; 10% FBS 16Hr, read-out: p53 reporter assay EC50): 322 nM; EC50 ([8]; read-out: Cell EC50 (4 hr, 0% FBS), p53 reporter assay, 4 hr, 0% FBS): 140 nM; EC50 ([8]; read-out: Cell EC50 (16 hr, 10% FBS), p53 reporter assay, 16 hr, 10% FBS): 320 nM; EC50 ([4]; 0% FBS 4Hr, read-out: LDH: Cytotoxicity assay EC50): > 50700 nM; EC50 ([4]; 10% FBS 16Hr, read-out: LDH: Cytotoxicity assay EC50): > 50700 nM; LDH: Cytotoxicity assay % Effect ([9]; 0% FBS 4Hr): 0.8526%; LDH: Cytotoxicity assay % Effect ([9]; 10% FBS 16Hr): 8.856% |
| CC(=O)N[C@@H](CCCCN=[N+]=[N-])C(=O)NCCC(=O)N[C@@H](CC(C)C)C(=O)N[C@H](C(=O)N[C@@H](Cc1ccccc1)C(=O)N[C@]1(C)CCCCCCC=CCCC[C@@](C)(C(=O)N[C@@H](CO)C(=O)N[C@@H](C)C(=O)N[C@@H](C)C(N)=O)NC(=O)[C@H](CC2CCC2)NC(=O)[C@H](CCC(N)=O)NC(=O)[C@H](C)NC(=O)[C@H](Cc2c[nH]c3ccccc23)NC(=O)[C@H](Cc2ccc(O)cc2)NC(=O)[C@@H]2CCCN2C1=O)[C@@H](C)O [MP-8834] | 21.9% | 11.7% | – | – | 3.03 | 187 A^2 | – | 129.4% | – | – | – | cell entry EC50 [12]: 312 nM; EC50 [4, 17]: > 50600 nM; LDH: Cytotoxicity assay: % Effect ([9]; 0% FBS 4Hr): 1.728% |
| CC(=O)N[C@H](C(=O)N[C@@H](CO)C(=O)NC(C)(Cc1ccccc1)C(=O)N[C@]1(C)CCCCCCC=CCCC[C@@](C)(C(N)=O)NC(=O)[C@H](CC(C)C)NC(=O)[C@H](CC(C)C)NC(=O)[C@H](C)NC(=O)[C@H](Cc2c[nH]c3ccccc23)NC(=O)[C@H](Cc2ccc(O)cc2)NC(=O)[C@H](CCC(=O)O)NC1=O)[C@@H](C)O (stereo partly drawn) [MP-159] | 40.4% | 165.5% | 30100 nM | 85.5 µM (≈ 126 µg/mL) | 2.75 | 210 A^2 | 37400 nM | – | 55.93% | 21600 nM | 47.15% | Kd [14]: 520 nM |
| CC(=O)N[C@@H](CC(C)C)C(=O)N[C@H](C(=O)N[C@@H](Cc1ccccc1)C(=O)NC(C)(C)C(=O)N[C@@H](CCC(=O)O)C(=O)N[C@@H](Cc1ccc(O)cc1)C(=O)N[C@@H](Cc1c[nH]c2ccccc12)C(=O)N[C@@H](C)C(=O)N[C@@H](CCC(N)=O)C(=O)N[C@@H](CC(C)C)C(=O)NC(C)(C)C(=O)N[C@@H](CO)C(N)=O)[C@@H](C)O [MP-790] (Ac-LTF[Aib]EYWAQL[Aib]S-NH2) | 19% | 9.13% | > 50600 nM | 88 µM (≈ 129 µg/mL) | 2.11 | 176 A^2 | > 50600 nM | -7.015% | 119.2% | > 50600 nM | -1.73% | – |
| CC(=O)N[C@H](C(=O)N[C@@H](CO)C(=O)NC(C)(Cc1ccccc1)C(=O)N[C@@H]1CCCCCCC=CCCC[C@@H](C(N)=O)NC(=O)C(C)(CC(C)C)NC(=O)[C@H](CC(C)C)NC(=O)[C@H](C)NC(=O)[C@H](Cc2c[nH]c3ccccc23)NC(=O)[C@H](Cc2ccc(O)cc2)NC(=O)[C@H](CCC(=O)O)NC1=O)[C@@H](C)O (stereo partly drawn) [MP-792] | 25.3% | 20.04% | 48900 nM | – | – | – | 12200 nM | – | -1.02% | > 50000 nM | 10.77% | Kd [14]: 199 nM |
